Data from US20090170901A1, “Benzoyl Urea Derivatives” (priority 2004, published 2009).
pIC50: −log10 of the molar value. Read-outs that look alike come from different tables or passages of the source.

Columns and labels:
NMRI mice = assay: Mouse formalin test (second phase) for in vivo efficacy; settings: for ED50 at 20 mg/kg: Mus musculus, po
NR1a/NR2B NMDA receptor = target: T1, NR1a/NR2B NMDA receptor (Rattus norvegicus, UniProt P35439+Q00960); assay: Functional NMDA antagonism, fluorimetric intracellular calcium measurement on HEK293 cells expressing NR1a/NR2B; format: cell-based
T1 construct: expressed in transfected cells
Experimental: (§1) Compounds were tested for their inhibitory action on NMDA evoked cytosolic calcium elevations in fluorescent calcium measurements. Studies were performed 48-72 h after addition of the inducing agent. Ketamine (500 μM) was also present during the induction in order to prevent cytotoxicity.
(§2) Assessing the Functional NMDA Antagonist Potency of Compounds on HEK293 cells expressing Recombinant NMDA Receptors Based on Measuring the Intracellular Calcium Concentration Using a Fluorimeter Plate Reader
Since NMDA receptors are known to be permeable to calcium ions upon excitation, the extent of NMDA receptor activation, and its inhibition by functional antagonists can be characterised by measuring the rise in the intracellular calcium concentration following agonist (NMDA) application onto the cells.
The intracellular calcium measurements are carried out on HEK293 cells expressing NR1a and NR2B or NR2A NMDA receptor subunits.
(§3) Loading is stopped by washing twice with the solution used also during the measurement (140 mM NaCl 5 mM KCl, 2 mM CaCl2, 5 mM HEPES [4-(2-hydroxyethyl)-1-piperazineethane-sulfonic acid], 5 mM HEPES—Na, 20 mM glucose, 10 μM glycine, pH=7.4). Then the test compound dissolved in the above solution (90 μl/well) is added. Intracellular calcium measurements are carried out with a plate reader fluorimeter. A rise in Fluo-4-fluorescence that reflects the intracellular calcium concentration is induced by application of 200 μM NMDA. Inhibitory potency of the test compound is assessed by measuring the reduction in the calcium elevation in the presence of different concentrations of the compound.
(§4) Inhibitory potency of a compound at a single concentration point is expressed as percent inhibition of the control NMDA response. For NR1a/NR2B expressing cells concentration-inhibition curves are produced. Sigmoidal concentration-inhibition curves are fitted over the data and IC50 values are defined as the concentration that produces half of the maximal inhibition that could be achieved with the compound. Mean IC50 values are derived from at least three independent experiments. For NR1-3/NR2A expressing cells antagonism of NMDA induced rise in intracellular calcium concentration by compounds of the present invention and reference compounds was tested at 10 and 15 microM concentration, respectively.

NR1-3/NR2A NMDA receptor = target: T2, NR1-3/NR2A NMDA receptor (Homo sapiens, UniProt Q05586+Q12879); assay: Functional NMDA antagonism, fluorimetric intracellular calcium measurement on HEK293 cells expressing NR1-3/NR2A; format: cell-based; settings: NMDA evoked calcium rise, NR1-3/NR2A transfected HEK293 cells; for inhibition at 15 µM: Table 1, 15 uM compound
T2 construct: expressed in transfected cells
Experimental: as §1, with “(1997); Neurochemistry International, 43, 19-29. (2003)]. […] Compounds” for “Compounds”
as §2
Since NMDA receptors are known to be permeable to calcium ions upon excitation, the extent of NMDA receptor activation, and its inhibition by functional antagonists can be characterised by measuring the rise in the intracellular calcium concentration following agonist (NMDA) application onto the cells. Since there is very high sequence homology between rat and human NMDA receptors (99, 95, 97% for NR1, NR2A, and NR2B subunits, respectively), it is believed that there is little, if any, difference in their pharmacological sensitivity.
The intracellular calcium measurements are carried out on HEK293 cells expressing NR1a and NR2B or NR2A NMDA receptor subunits. Cells are plated onto standard 96-well microplates and the cultures are maintained in an atmosphere of 95% air-5% CO2 at 37° C. until testing.
as §3, with “The cells are loaded with a fluorescent Ca^2+-sensitive dye, Fluo-4/AM (2-2.5 μM) prior to testing. Loading” for “Loading”
as §4

[1] = given 15 min before formalin, licking/biting time 20 to 25 min after formalin, >20 means inhibition less than 50% at 20 mg/kg p.o.
[2] = ip, mouse formalin test, read-out: ED50
[3] = Table 2, reference compounds, 10 uM compound
[4] = Table 1, inhibition of calcium rise induced by 200 μM NMDA, NR1a/NR2B transfected HEK293 cells, read-out: NR1a/NR2B IC50

T2 sequence (Q12879 23-1464, other chains not shown): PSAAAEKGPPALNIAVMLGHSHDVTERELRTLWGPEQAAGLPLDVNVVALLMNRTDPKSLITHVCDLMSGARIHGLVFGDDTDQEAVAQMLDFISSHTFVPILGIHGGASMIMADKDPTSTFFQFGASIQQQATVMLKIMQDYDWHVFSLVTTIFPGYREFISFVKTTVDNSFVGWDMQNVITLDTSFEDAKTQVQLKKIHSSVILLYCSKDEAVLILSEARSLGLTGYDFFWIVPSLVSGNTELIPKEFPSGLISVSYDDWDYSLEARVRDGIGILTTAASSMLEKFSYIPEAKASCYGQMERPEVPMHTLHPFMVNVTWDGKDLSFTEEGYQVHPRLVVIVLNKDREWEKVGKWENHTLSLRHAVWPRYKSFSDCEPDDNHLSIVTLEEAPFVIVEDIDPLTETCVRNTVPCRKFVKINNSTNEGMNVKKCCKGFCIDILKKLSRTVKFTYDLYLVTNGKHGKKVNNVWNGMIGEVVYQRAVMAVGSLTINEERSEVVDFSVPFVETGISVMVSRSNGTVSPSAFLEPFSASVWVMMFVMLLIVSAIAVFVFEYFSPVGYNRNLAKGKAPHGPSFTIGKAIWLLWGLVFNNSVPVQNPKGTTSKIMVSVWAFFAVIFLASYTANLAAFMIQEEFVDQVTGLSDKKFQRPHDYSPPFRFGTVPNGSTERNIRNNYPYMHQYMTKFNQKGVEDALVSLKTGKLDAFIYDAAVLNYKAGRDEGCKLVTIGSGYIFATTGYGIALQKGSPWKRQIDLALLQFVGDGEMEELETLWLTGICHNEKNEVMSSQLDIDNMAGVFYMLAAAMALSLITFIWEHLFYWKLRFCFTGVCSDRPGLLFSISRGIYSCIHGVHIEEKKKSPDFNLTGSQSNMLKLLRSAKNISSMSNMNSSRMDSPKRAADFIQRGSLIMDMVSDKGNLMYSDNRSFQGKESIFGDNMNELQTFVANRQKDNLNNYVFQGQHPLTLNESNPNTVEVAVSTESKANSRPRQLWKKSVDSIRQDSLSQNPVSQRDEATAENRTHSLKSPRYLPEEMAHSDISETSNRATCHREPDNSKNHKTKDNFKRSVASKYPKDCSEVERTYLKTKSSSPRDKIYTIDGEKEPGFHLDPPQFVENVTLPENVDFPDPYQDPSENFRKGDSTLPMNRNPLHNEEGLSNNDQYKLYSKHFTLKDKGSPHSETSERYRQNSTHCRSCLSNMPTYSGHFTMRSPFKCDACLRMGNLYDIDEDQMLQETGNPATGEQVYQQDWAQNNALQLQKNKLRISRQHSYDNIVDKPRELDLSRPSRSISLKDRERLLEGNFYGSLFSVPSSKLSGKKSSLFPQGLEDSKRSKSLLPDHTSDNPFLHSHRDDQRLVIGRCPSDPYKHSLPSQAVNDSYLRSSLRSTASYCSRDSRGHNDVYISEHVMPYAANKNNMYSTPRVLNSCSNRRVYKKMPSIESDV
T1 sequence (Q00960 27-1482, other chains not shown): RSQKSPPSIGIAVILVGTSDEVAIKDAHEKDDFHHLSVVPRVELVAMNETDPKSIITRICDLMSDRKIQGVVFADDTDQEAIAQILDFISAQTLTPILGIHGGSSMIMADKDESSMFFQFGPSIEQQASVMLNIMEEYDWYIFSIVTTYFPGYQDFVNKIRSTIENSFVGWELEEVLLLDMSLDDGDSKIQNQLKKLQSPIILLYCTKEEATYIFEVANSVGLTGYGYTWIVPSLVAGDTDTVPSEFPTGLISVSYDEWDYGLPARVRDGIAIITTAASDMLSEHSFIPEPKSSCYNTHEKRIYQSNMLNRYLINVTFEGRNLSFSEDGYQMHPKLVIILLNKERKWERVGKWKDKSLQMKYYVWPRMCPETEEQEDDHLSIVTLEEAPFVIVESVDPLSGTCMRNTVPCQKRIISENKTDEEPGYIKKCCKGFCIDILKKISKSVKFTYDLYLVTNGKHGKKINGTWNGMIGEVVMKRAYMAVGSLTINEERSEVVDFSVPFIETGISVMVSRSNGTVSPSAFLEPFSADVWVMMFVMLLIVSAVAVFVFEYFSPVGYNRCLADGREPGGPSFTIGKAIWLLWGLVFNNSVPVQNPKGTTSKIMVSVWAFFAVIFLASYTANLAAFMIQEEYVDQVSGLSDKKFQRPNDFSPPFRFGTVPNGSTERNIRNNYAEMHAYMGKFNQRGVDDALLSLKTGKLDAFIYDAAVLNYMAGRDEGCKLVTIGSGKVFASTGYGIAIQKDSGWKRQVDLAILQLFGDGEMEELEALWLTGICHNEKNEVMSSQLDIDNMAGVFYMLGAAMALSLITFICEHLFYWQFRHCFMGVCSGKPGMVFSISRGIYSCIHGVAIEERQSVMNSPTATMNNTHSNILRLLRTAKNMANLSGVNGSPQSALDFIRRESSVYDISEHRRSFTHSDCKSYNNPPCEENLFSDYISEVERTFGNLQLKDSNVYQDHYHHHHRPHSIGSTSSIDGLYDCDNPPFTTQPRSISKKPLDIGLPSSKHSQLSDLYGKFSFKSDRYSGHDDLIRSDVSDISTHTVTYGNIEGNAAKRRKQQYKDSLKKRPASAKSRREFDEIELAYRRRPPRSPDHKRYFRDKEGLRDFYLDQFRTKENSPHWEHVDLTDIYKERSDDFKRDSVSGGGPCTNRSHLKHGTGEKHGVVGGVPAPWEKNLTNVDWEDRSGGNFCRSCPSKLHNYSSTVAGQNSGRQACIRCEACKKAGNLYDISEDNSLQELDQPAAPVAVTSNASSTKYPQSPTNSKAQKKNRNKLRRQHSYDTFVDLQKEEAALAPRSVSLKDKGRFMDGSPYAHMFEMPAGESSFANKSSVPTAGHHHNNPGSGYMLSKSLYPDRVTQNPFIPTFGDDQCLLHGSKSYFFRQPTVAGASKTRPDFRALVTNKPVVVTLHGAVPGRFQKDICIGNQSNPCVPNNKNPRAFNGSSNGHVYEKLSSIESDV

Row | pIC50 (NR1a/NR2B NMDA receptor; [4]) | inhibition at 15 µM (NR1-3/NR2A NMDA receptor) | Structure (SMILES) | ED50 at 20 mg/kg (NMRI mice; [1]) | other results
1 | 7.23 | -0.9% | COc1cccc(CC2CCN(C(=O)NC(=O)c3ccc(O)cc3)CC2)c1 [Example 26, 4-(3-Methoxy-benzyl)-piperidine-1-carboxylic Acid 4-hydroxy-benzoylamide] | – | –
2 | 7.55 | 2.6% | O=C(NC(=O)N1CCC(Cc2ccccc2)CC1)c1ccc(O)cc1 [Example 1, 4-Benzyl-piperidine-1-carboxylic Acid 4-hydroxy-benzoylamide] | – | –
3 | 8.12 | -5.7% | COc1ccc(CC2CCN(C(=O)NC(=O)c3ccc(O)cc3)CC2)cc1 [Example 2, 4-(4-Methoxy-benzyl)-piperidine-1-carboxylic Acid 4-hydroxy-benzoylamide] | – | –

Continued, compound first:

Row | Structure (SMILES) | pIC50 (NR1a/NR2B NMDA receptor; [4]) | inhibition at 15 µM (NR1-3/NR2A NMDA receptor) | ED50 at 20 mg/kg (NMRI mice; [1]) | other results
4 | Cc1ccc(CC2(O)CCN(CCOc3ccc(O)cc3)CC2)cc1 [Co-101244, 1-[2-(4-hydroxyphenoxy)ethyl]-4-hydroxy-4-(4-methylbenzyl)piperidine] | – | – | > 20 mg/kg | ED50 (NMRI mice; [2]): 5.9 mg/kg
5 | C[C@@H]([C@@H](O)c1ccc(O)cc1)N1CCC(O)(c2ccccc2)CC1 [CP 101,606, (1S,2S)-1-(4-hydroxyphenyl)-2-(4-hydroxy-4-phenylpiperidine-1-yl)-1-propanol] | – | – | > 20 mg/kg | –
6 | O=C(CCN1CCC(Cc2ccc(F)cc2)CC1)c1ccc2[nH]c(=O)oc2c1 [EMD 95885, reference compound] | – | – | – | pIC50 (NR1a/NR2B NMDA receptor; Table 2, reference compounds, inhibition of calcium rise induced by 200 μM NMDA, NR1a/NR2B transfected HEK293 cells, read-out: NR1a/NR2B IC50): 7.32; NR1-3/NR2A % inhibition at 10 uM (NR1-3/NR2A NMDA receptor; [3]): 0.1%; ED50 (NMRI mice; p.o., given 15 min before formalin, licking/biting time 20 to 25 min after formalin, >20 means inhibition less than 50% at 20 mg/kg p.o.): 3.7 mg/kg
7 | C[C@@H](CN1CCC(Cc2ccccc2)CC1)[C@@H](O)c1ccc(O)cc1 [Ro 25.6981, R—(R*,S*)-1-(4-hydroxyphenyl)-2-methyl-3-[4-(phenylmethyl)piperidin-1-yl]-1-propanol, reference compound] | – | – | > 20 mg/kg | pIC50 (NR1a/NR2B NMDA receptor): 7.24; inhibition at 10 µM (NR1-3/NR2A NMDA receptor; [3]): 1%; ED50 (NMRI mice; [2]): 5.1 mg/kg
8 | O=c1[nH]c2ccc([S+]([O-])CCN3CCC(Cc4ccc(F)cc4)CC3)cc2o1 (centres unmarked) [CI-1041, 6-{2-[4-(4-fluoro-benzyl)-piperidin-1-yl]-ethanesulfinyl}-3H-benzooxazol-2-one] | – | – | 2.4 mg/kg | –
9 | O=C(NC(=O)N1CCC(CSc2ccccc2)CC1)c1ccc(O)cc1 [Example 28, 4-(Phenylthio-methyl)-piperidine-1-carboxylic Acid 4-hydroxy-benzoylamide] | 7.23 | -2.9% | – | –
10 | O=C(NC(=O)N1CCC(Cc2ccccc2)CC1)c1ccc2[nH]c(=O)oc2c1 [Example 7, 4-Benzyl-piperidine-1-carboxylic Acid (2-oxo-2,3-dihydro-benzooxazole-6-carbonyl)-amide] | 7.22 | -6.7% | – | –
11 | Cc1ccc(CCC2CCN(C(=O)NC(=O)c3ccc(O)cc3)CC2)cc1 [Example 27, 4-[2-(p-Tolyl)-ethyl]-piperidine-1-carboxylic acid 4-hydroxy-benzoylamide] | 7.84 | 11.4% | – | –
